Laboratory results as given in ChEMBL document CHEMBL5226342, “Novel Reversible-Binding PET Ligands for Imaging Monoacylglycerol Lipase Based on the Piperazinyl Azetidine Scaffold” (J Med Chem, 2021).

Legend:
[1] = Metabolic stability of the compound in iv dosed Sprague-Dawley rat brain assessed as parent compound remaining measured after 30 mins by radio-HPLC analysis; assay type: ADME, organism-based; details: read-out: Stability
[2] = Drug uptake in iv dosed Sprague-Dawley rat hippocampus measured for 90 mins by PET imaging based analysis; assay type: ADME, organism-based; details: in vivo, 1.5 h
[3] = Metabolic stability of the compound in iv dosed Sprague-Dawley rat brain assessed as parent compound remaining measured after 60 mins by radio-HPLC analysis; assay type: ADME, organism-based; details: read-out: Stability
[4] = Drug uptake in iv dosed rhesus monkey pons by PET imaging based analysis; assay type: ADME, organism-based, Macaca mulatta; details: in vivo
[5] = Drug uptake in iv dosed rhesus monkey brain by PET imaging based analysis; assay type: ADME, organism-based, Macaca mulatta; details: in vivo
[6] = Drug uptake in iv dosed CD-1 mouse pancreas measured after 60 mins by Ex vivo whole body biodistribution based analysis; assay type: ADME, organism-based; details: 1 h
[7] = Drug uptake in iv dosed CD-1 mouse heart measured after 60 mins by Ex vivo whole body biodistribution based analysis; assay type: ADME, organism-based; details: 1 h
[8] = Drug uptake in iv dosed CD-1 mouse lung measured after 60 mins by Ex vivo whole body biodistribution based analysis; assay type: ADME, organism-based; details: 1 h
[9] = Drug uptake in iv dosed rhesus monkey hippocampus by PET imaging based analysis; assay type: ADME, organism-based, Macaca mulatta; details: in vivo
[10] = Drug uptake in iv dosed Sprague-Dawley rat cerebellum measured for 90 mins by PET imaging based analysis; assay type: ADME, organism-based; details: in vivo, 1.5 h
[11] = Drug uptake in iv dosed rhesus monkey cortex by PET imaging based analysis; assay type: ADME, organism-based, Macaca mulatta; details: in vivo
[12] = Drug uptake in iv dosed rhesus monkey striatum pretreated with MAGL inhibitor, […] PET imaging based analysis; assay type: ADME, organism-based, Macaca mulatta; details: in vivo
[13] = Drug uptake in iv dosed rhesus monkey hippocampus measured after 60 mins by PET imaging based analysis; assay type: ADME, organism-based, Macaca mulatta; details: in vivo, 1 h
[14] = Drug uptake in iv dosed rhesus monkey cortex pretreated with MAGL inhibitor, […] PET imaging based analysis; assay type: ADME, organism-based, Macaca mulatta; details: in vivo
[15] = Drug uptake in iv dosed rhesus monkey cerebellum measured after 60 mins by PET imaging based analysis; assay type: ADME, organism-based, Macaca mulatta; details: in vivo, 1 h
[16] = Drug uptake in iv dosed CD-1 mouse small intestine measured after 60 mins by Ex vivo whole body biodistribution based analysis; assay type: ADME, organism-based; details: 1 h
[17] = Drug uptake in iv dosed CD-1 mouse liver measured after 60 mins by Ex vivo whole body biodistribution based analysis; assay type: ADME, organism-based; details: 1 h
[18] = Drug uptake in iv dosed rhesus monkey hippocampus pretreated with MAGL inhibitor, […] PET imaging based analysis; assay type: ADME, organism-based, Macaca mulatta; details: in vivo
[19] = Drug uptake in iv dosed Sprague-Dawley rat pons measured for 90 mins by PET imaging based analysis; assay type: ADME, organism-based; details: in vivo, 1.5 h
[20] = Drug uptake in iv dosed rhesus monkey striatum by PET imaging based analysis; assay type: ADME, organism-based, Macaca mulatta; details: in vivo
[21] = Drug uptake in iv dosed rhesus monkey cerebellum pretreated with MAGL inhibitor, […] PET imaging based analysis; assay type: ADME, organism-based, Macaca mulatta; details: in vivo
[22] = Drug uptake in mouse brain treated with MAGL inhibitor, JNJ-42226314 at 15 mins post-drug administration by PET imaging based analysis; assay type: ADME, tissue-based; details: in vivo, 0.25 h
[23] = Drug uptake in iv dosed rhesus monkey pons measured after 60 mins by PET imaging based analysis; assay type: ADME, organism-based, Macaca mulatta; details: in vivo, 1 h
[24] = Drug uptake in iv dosed CD-1 mouse kidney measured after 60 mins by Ex vivo whole body biodistribution based analysis; assay type: ADME, organism-based; details: 1 h
[25] = Metabolic stability of the compound in iv dosed Sprague-Dawley rat plasma assessed as parent compound remaining measured after 30 mins by radio-HPLC analysis; assay type: ADME, organism-based; details: read-out: Stability
[26] = Drug uptake in iv dosed rhesus monkey striatum measured after 60 mins by PET imaging based analysis; assay type: ADME, organism-based, Macaca mulatta; details: in vivo, 1 h
[27] = Drug uptake in iv dosed Sprague-Dawley rat striatum measured for 90 mins by PET imaging based analysis; assay type: ADME, organism-based; details: in vivo, 1.5 h
[28] = Drug uptake in iv dosed rhesus monkey cerebellum by PET imaging based analysis; assay type: ADME, organism-based, Macaca mulatta; details: in vivo
[29] = Metabolic stability of the compound in iv dosed Sprague-Dawley rat plasma assessed as parent compound remaining measured after 60 mins by radio-HPLC analysis; assay type: ADME, organism-based; details: read-out: Stability
[30] = Drug uptake in iv dosed Sprague-Dawley rat cerebral cortex measured for 90 mins by PET imaging based analysis; assay type: ADME, organism-based; details: in vivo, 1.5 h
[31] = Drug uptake in iv dosed rhesus monkey cortex measured after 60 mins by PET imaging based analysis; assay type: ADME, organism-based, Macaca mulatta; details: in vivo, 1 h

With O=C(c1ccc2c(ccn2-c2ccc([18F])cc2)c1)N1CC(N2CCN(c3ncccn3)CC2)C1 the remaining at 0.5 h [1] was 95%, the Drug uptake [2] was “Active” and the remaining at 1 h [3] was 98%. The Drug uptake [4] was “Active”, the SUVmax [5] was 1.2 and the Drug uptake [6] was “Not Active”. For the same molecule, the Drug uptake [7] was “Not Active”, the Drug uptake [8] was “Not Active” and the Drug uptake [9] was “Active”. For the same molecule, the Drug uptake [10] was “Active”, the Drug uptake [11] was “Active” and the Drug uptake [12] was “Not Active”. The Drug uptake [13] was “Active”, the Drug uptake [14] was “Not Active” and the Drug uptake [15] was “Active”. For the same molecule, the Drug uptake [16] was “Active”, the Drug uptake [17] was “Active” and the Drug uptake [18] was “Not Active”. The Drug uptake [19] was “Active”, the Drug uptake [20] was “Active” and the Drug uptake [21] was “Not Active”. For the same molecule, the Drug uptake [22] was “Not Active”, the Drug uptake [23] was “Not Active” and the Drug uptake [24] was “Not Active”. The remaining at 0.5 h [25] was 53%, the Drug uptake [26] was “Active” and the Drug uptake [27] was “Active”. For the same molecule, the Drug uptake [28] was “Active”, the remaining at 1 h [29] was 40% and the SUVmax [30] was 1.4. The Drug uptake [31] was “Active”.
